The values below come from PubChem BioAssay (NCI).

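Following 48 hours of exposure in 96-well plates, responses at five concentrations were used to interpolate endpoints linearly. The concentration for full growth arrest is given as TGI.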

Some test systems named below: DMS 114 small cell lung; DMS 273 small cell lung; M19-MEL melanoma; LXFL 529 NSCLC; SNB-78 CNS; RXF-631 renal; HOP-18 NSCLC; XF 498 CNS.
What all share (assay): DTP human tumour cell line panel, 48 h

Take `CCC(=O)OC1CCn2c1nc1c2C(=O)C(C)=C(NC(C)=O)C1=O` (stereo not drawn): the TGI is 1.62 µM with DMS 114 small cell lung; 3.37 µM with DMS 273 small cell lung; 3.31 µM in the assay with M19-MEL melanoma; 2.72 µM in the assay on LXFL 529 NSCLC; 4.35 µM in the assay on SNB-78 CNS.
Turning to `CC1CC(=O)Nc2ccc(Cl)cc2N1C(=O)CN1CCC(CCCCN(C)C)CC1` (stereo not drawn), the TGI in the assay on RXF-631 renal, in the assay with DMS 114 small cell lung, in the assay on HOP-18 NSCLC, in the assay with DMS 273 small cell lung and with LXFL 529 NSCLC was over 100 µM each time.
For `CC(=O)Nc1ccc(-c2nnc(SCC(=O)Nc3cccc(C)c3)o2)cc1`, the TGI in the assay on DMS 114 small cell lung is 6.94 µM; in the assay with HOP-18 NSCLC it was 29.7 µM; in the assay on DMS 273 small cell lung, 23 µM; in the assay with M19-MEL melanoma it was 24.9 µM; in the assay on LXFL 529 NSCLC, 22.8 µM; in the assay with SNB-78 CNS, 31.1 µM.
On to `CCCCn1c(-c2ccccc2)cs/c1=N\N=C1C=C(C(C)(C)C)C(=O)C(C(C)(C)C)=C1`, for which the TGI with RXF-631 renal, in the assay with DMS 114 small cell lung, in the assay with XF 498 CNS, in the assay on DMS 273 small cell lung, with M19-MEL melanoma and with LXFL 529 NSCLC was over 100 µM in each case.
For the compound `O=C(NN1C(=O)C(Cl)C1c1cccc(O)c1)c1ccccc1O` (stereo not drawn), the concentration for total growth inhibition (TGI) in the assay on DMS 114 small cell lung, in the assay on XF 498 CNS, in the assay with HOP-18 NSCLC, in the assay with DMS 273 small cell lung, in the assay with M19-MEL melanoma and in the assay on LXFL 529 NSCLC was over 100 µM in each case. For the same compound, in the assay on SNB-78 CNS, the TGI is over 100 µM.
Take `O=c1oc2cc(O)ccc2c2[nH]c3cc(O)ccc3c12`: the TGI with DMS 114 small cell lung was 53.8 µM; in the assay with XF 498 CNS, 73.6 µM; in the assay on HOP-18 NSCLC it was over 100 µM; with DMS 273 small cell lung, 88.6 µM; in the assay on M19-MEL melanoma, 98.7 µM; with LXFL 529 NSCLC it was over 100 µM. Besides, the TGI in the assay with SNB-78 CNS is over 100 µM.
On to `Cc1ccc(S(=O)(=O)NC(=O)C2S(=O)(=O)OCCOS2(=O)=O)cc1`, for which the total growth inhibition concentration (TGI) with RXF-631 renal, with XF 498 CNS, in the assay on DMS 273 small cell lung, with M19-MEL melanoma, in the assay with LXFL 529 NSCLC and with SNB-78 CNS was over 100 µM throughout.
With `CCN(CC)CC1CCCCN1CC(=O)N1c2cc(Cl)ccc2NC(=O)CC1C` (stereo not drawn), the TGI in the assay on DMS 114 small cell lung, with XF 498 CNS, in the assay on DMS 273 small cell lung, with M19-MEL melanoma, with LXFL 529 NSCLC and in the assay with SNB-78 CNS was over 100 µM each time.
Consider `CCOC(=O)/C=C/n1c2ccccc2c(=O)c2cc(OC)ccc21`, for which the TGI in the assay with RXF-631 renal, in the assay on DMS 114 small cell lung, with XF 498 CNS, with HOP-18 NSCLC, in the assay with DMS 273 small cell lung and in the assay with M19-MEL melanoma was over 100 µM each time. The compound also displayed a TGI in the assay with LXFL 529 NSCLC of over 100 µM.
Regarding `O=C(Nc1ccccc1[N+](=O)[O-])/C(=N/Nc1cccc(Cl)c1)c1c(O)c2ccccc2oc1=O`, the TGI in the assay with DMS 114 small cell lung is 53.8 µM; in the assay with HOP-18 NSCLC, over 100 µM; in the assay on DMS 273 small cell lung, over 100 µM; in the assay on M19-MEL melanoma, over 100 µM; in the assay on LXFL 529 NSCLC, over 100 µM.
For the compound `Cc1ccc2nc(N)[nH]c(=O)c2c1Sc1ccncc1`, the TGI in the assay with DMS 114 small cell lung, with XF 498 CNS, with HOP-18 NSCLC, in the assay with DMS 273 small cell lung, in the assay on M19-MEL melanoma and with LXFL 529 NSCLC was over 100 µM throughout. In addition, the TGI in the assay on SNB-78 CNS was over 100 µM.
As to `CC(C)OP(=O)(OC(C)C)C(=NCCO)NNc1ccc([N+](=O)[O-])cc1`, the concentration for total growth inhibition (TGI) in the assay with DMS 114 small cell lung, in the assay on XF 498 CNS, in the assay with DMS 273 small cell lung, in the assay on M19-MEL melanoma, in the assay with LXFL 529 NSCLC and with SNB-78 CNS was over 100 µM throughout.
For `Oc1ccc(-c2c3ccccc3c(-c3ccc(O)cc3)c3ccccc23)cc1`, the total growth inhibition concentration (TGI) in the assay with DMS 114 small cell lung, in the assay on XF 498 CNS, in the assay on HOP-18 NSCLC, with DMS 273 small cell lung, in the assay on M19-MEL melanoma and in the assay on LXFL 529 NSCLC was over 100 µM in each case. In the assay on SNB-78 CNS, this compound came in with a TGI of over 100 µM.
As for `N#C/C(=C\c1ccc(O)c(O)c1)c1c(C#N)c(N)nn1-c1ccccc1`, the total growth inhibition concentration (TGI) was 29.1 µM with HOP-18 NSCLC; 18.5 µM with DMS 273 small cell lung; 94.6 µM with M19-MEL melanoma; 92.5 µM with LXFL 529 NSCLC; over 100 µM with SNB-78 CNS.
On to `CCOC(=O)/C(Br)=C1\OC(=O)c2ccccc2-c2ccccc21`, for which the TGI is over 100 µM in the assay with RXF-631 renal; 61.7 µM in the assay with DMS 114 small cell lung; over 100 µM with XF 498 CNS; over 100 µM with HOP-18 NSCLC; over 100 µM with DMS 273 small cell lung; over 100 µM with M19-MEL melanoma. The TGI with LXFL 529 NSCLC is 99 µM; with SNB-78 CNS, over 100 µM.
As to `COc1ccc(CN(CCN(C)C)c2ccccn2)cc1` (tested in a mixture with another compound), the TGI with DMS 114 small cell lung, in the assay on XF 498 CNS, in the assay with HOP-18 NSCLC, in the assay on LXFL 529 NSCLC and in the assay with SNB-78 CNS was over 100 µM in each case.
